# In patent publication US4698306A, “Process for producing peroxidase” (Takara Shuzo Co., Ltd., priority 1984, dated 1987):
# Like-named read-outs stand apart in the source and are kept apart here.
# Assays:
# [1] = biological target: T1, peroxidase (Coprinopsis cinerea, UniProt P28314); experiment: Specificity for hydrogen donors prepared by combining MBTH with dimethylaniline, diethylaniline or EHMT; assay type: biochemical, Coprinus macrorhizus K-1330; conditions: hydrogen donor combined with MBTH; measured at 590 nm; 4-AA/phenol = 100
# T1 sequence (P28314 21-363): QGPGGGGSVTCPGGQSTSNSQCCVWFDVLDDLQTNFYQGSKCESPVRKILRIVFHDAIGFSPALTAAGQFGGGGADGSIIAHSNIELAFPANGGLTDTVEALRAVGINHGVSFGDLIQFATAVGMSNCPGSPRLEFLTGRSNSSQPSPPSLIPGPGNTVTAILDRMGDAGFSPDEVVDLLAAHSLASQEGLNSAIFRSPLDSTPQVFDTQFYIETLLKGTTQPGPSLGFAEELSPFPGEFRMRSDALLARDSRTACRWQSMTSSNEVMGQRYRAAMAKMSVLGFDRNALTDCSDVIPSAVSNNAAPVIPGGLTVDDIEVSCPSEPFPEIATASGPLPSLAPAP
# [2] = biological target: T1, peroxidase; experiment: Specificity for hydrogen donors prepared by combining 4-AA with various compounds; assay type: biochemical, Coprinus macrorhizus K-1330; conditions: hydrogen donor combined with 4-AA, phenol = 100
# [3] = biological target: T1, peroxidase; experiment: Effects of inhibitors, metal ions and metal chelating agents on peroxidase activity; assay type: biochemical, Coprinus macrorhizus K-1330; conditions: for Relative activity: peroxidase, 1000 µM; for Relative activity / activity at 1000 µM: 1 min; for activity at 1000 µM: read-out: Relative activity
# [4] = system: Coprinus macrorhizus K-1330 (FERM BP-648); experiment: Effect of iron salts on the production of peroxidase; assay type: cell-based; conditions: culture filtrate, 26° C., 5 to 10 days
# [5] = additive 1 mM, no addition = 100
structure (smiles),measurement,setting,value
"CCN(CCO)c1cccc(C)c1 [EHMT, N-ethyl-N-hydroxyethyl-m-toluidine]",Relative activity,[1],41%
same,Relative activity,[2]; measured at 550 nm,62%
"Oc1c(Cl)cc(Cl)cc1Cl [2,4,6-Trichlorophenol]",Relative activity,[2]; measured at 520 nm,96%
[Cl][Sn][Cl] [SnCl2],Relative activity,[3],92%
[Cl][Mn][Cl] [MnCl2],Relative activity,[3],86%
"O=C(O)c1cc[c]([Hg][Cl])cc1 [PCMB, p-Chloromercuribenzoic acid]",Relative activity,[3],98%
"O=S(=O)(F)Cc1ccccc1 [PMSF, Phenylmethylsulfonyl fluoride]",Relative activity,[3],98%
[Cl][Hg][Cl] [HgCl2],Inhibition of the enzyme,[3],inhibited
same,Relative activity,[3],6%
[Cl][Fe]([Cl])[Cl] [FeCl3],Relative activity,[3],107%
[Ba+2].[Cl-].[Cl-] [BaCl2],Relative activity,[3],96%
O.O.O.O.O.O.O.O=S(=O)([O-])[O-].[Fe+2] [FeSO4.7H2 O],Peroxidase activity (maximum activity),[4]; 0.04 % FeSO4.7H2O added to medium,28.0 unit/ml
same,Peroxidase activity (maximum activity),[4]; 0.08 % FeSO4.7H2O added to medium,46.4 unit/ml
same,Peroxidase activity (maximum activity),[4]; 0.12 % FeSO4.7H2O added to medium,75.5 unit/ml
same,Peroxidase activity (maximum activity),[4]; 0.16 % FeSO4.7H2O added to medium,80.2 unit/ml
same,Peroxidase activity (maximum activity),[4]; 0.20 % FeSO4.7H2O added to medium,66.0 unit/ml
same,Peroxidase activity (maximum activity),[4]; 0.24 % FeSO4.7H2O added to medium,36.8 unit/ml
same,Peroxidase activity (maximum activity),[4]; 0.32 % FeSO4.7H2O added to medium,17.0 unit/ml
O=S(=O)([O-])[O-].[Ni+2] [NiSO4],Relative activity,[3],92%
O[C@H](CS)[C@H](O)CS (racemic) [Dithiothreitol],activity at 1000 µM,[3]; [5],95%
O=C(O)CN(CCN(CC(=O)O)CC(=O)O)CC(=O)O [EDTA],activity at 1000 µM,[3],97%
[Cl-].[Cl-].[Co+2] [CoCl2],Relative activity,[3],98%
[N-]=[N+]=[N-] [Sodium azide],Inhibition of the enzyme,[3],inhibited
Oc1ccc(O)cc1 [Hydroquinone],Relative activity,[2]; measured at 500 nm,10%
N[C@@H](CS)C(=O)O [L-cysteine],activity at 1000 µM,[3]; [5],105%
CN(C)c1ccccc1 [Dimethylaniline],Relative activity,[1],50%
same,Relative activity,[2]; measured at 550 nm,21%
Oc1cccc2ccccc12 [α-Naphthol],Relative activity,[2]; measured at 500 nm,18%
O=C(O)CI [Iodoacetic acid],activity at 1000 µM,[3],100%
c1cnc2c(c1)ccc1cccnc12 [o-Phenanthroline],activity at 1000 µM,[3]; [5],88%
"c1ccc(-c2ccccn2)nc1 [α,α'-Dipyridyl]",activity at 1000 µM,[3],103%
[Cl-].[Cl-].[Zn+2] [ZnCl2],Relative activity,[3],85%
Oc1ccccc1O [Pyrocatechol],Relative activity,[2]; measured at 500 nm,58%
CCN(CC)c1ccccc1 [Diethylaniline],Relative activity,[1],49%
same,Relative activity,[2]; measured at 550 nm,49%
Oc1cccc(O)c1 [Resorcinol],Relative activity,[2]; measured at 500 nm,10%
[F-].[Na+] [Sodium fluoride],Relative activity,[3],103%
Oc1ccccc1 [Phenol],Relative activity,[2]; measured at 500 nm,100%
NC(N)=S [Thiourea],Inhibition of the enzyme,[3],inhibited
same,activity at 1000 µM,[3],57%
"Oc1c(Cl)cccc1Cl [2,6-Dichlorophenol]",Relative activity,[2]; measured at 520 nm,154%
"Oc1ccc(Br)cc1Br [2,4-Dibromophenol]",Relative activity,[2]; measured at 520 nm,47%
O=S(=O)([O-])[O-].[Cu+2] [CuSO4],Relative activity,[3],105%
"Oc1ccc(Cl)cc1Cl [2,4-Dichlorophenol]",Relative activity,[2]; measured at 520 nm,115%
